{"source": "paper PMC9643865", "about": "“Bromo-protopine, a novel protopine derivative, alleviates tau pathology by activating chaperone-mediated autophagy for Alzheimer’s disease therapy” (Frontiers in Molecular Biosciences, 2022)", "key": {"3xTg-AD mice [1]": {"tested_on": "3xTg-AD mice", "assay": "Golgi staining of dendritic spines", "assay_type": "in vivo", "details": "oral, 8 months", "method": "(§1) Female homozygous 3xTg-AD mice carrying transgenes for APP (Swedish KM670/671Nl), MAPT (tauP301L) and Psen1 (M146V) were procured from Jackson’s Laboratory (# 004807). The transgenic mice colonies were bred and maintained in the HKBU animal house at 23 ± 2 °C, 60 ± 15% relative humidity with regular access to food and water. Seven-month-old 3xTg-AD mice were randomly segregated into three treatment groups: Tg-Vehicle, 1 mg/kg, and 2.5 mg/kg PRO-Br. PRO-Br was administered orally for 8 months (n = 8). The bodyweight of mice from all the groups was recorded once every week.\nFD Rapid Golgi Stain Kit was employed to determine the dendritic spine density in the 3xTg-AD mice brains and was performed according to procedure described previously ([Iyaswamy et al., 2022]). Briefly, mice were perfused using 4% PFA, and the brains were dissected carefully to avoid damage. Next, the brain samples were frozen by dipping in isopentane solution (on dry ice). The frozen brains were sectioned at 150 μm thickness using a Shandon Cryotome SME Cryostat (Ramsey, MN, United States). The tissue slices were carefully mounted onto glass slides and stained with the kit reagents in accordance with the manufacturer’s procedure. The dendritic images were acquired by Leica confocal microscope. […]"}, "P301S mice": {"tested_on": "P301S mice", "assay": "Rotarod test", "assay_type": "in vivo", "details": "oral, 2.5 months, vs Tg-Vehicle", "method": "Female homozygous P301S mice bearing the transgene for MAPT (P301S), were generous gifts from Michael Goedert. P301S-tau mice (1.5-month-old, n = 8) were administered with PRO-Br daily for 2.5 months. The mice models employed in the study were maintained under 12 h light-dark cycles and were provided ad libitum access to chow and water.\nMotor behavior was assessed by the rotarod test (Harvard apparatus, SeDaCom v2.0.000) and was performed according to the procedure described previously ([Song et al., 2020]). The study mice were brought into the experimental room 30 min before the test. The training was conducted with a constant speed of 4, 8, and 12 rpm on days 1, 2, and 3, respectively. Three trials were conducted each day and the performance was monitored. On the fourth day, an acceleration mode (4–40 rpm in 5 min) was introduced, and the time spent (s) by each mouse on the rod was recorded by the instrument connected to a computer."}, "3xTg-AD mice [2]": {"tested_on": "3xTg-AD mice", "assay": "Morris water maze test", "assay_type": "in vivo", "details": "oral, 1 and 2.5 mg/kg, 8 months", "method": "as §1\nTo determine the memory functions of experimental mice, the Morris water maze test was performed according to the procedure described previously ([Iyaswamy et al., 2020]). Mice training preliminary to the probe trail was performed in two phases. The first phase, known as the visible-platform training, comprised four trials, for 1 day. In each trial, a platform was placed in the tank, 1 cm below the surface of the (clear) water. The mouse was introduced, and the time required for the mouse to find the platform was recorded. The position of the platform was changed for every trial. […] The distance travelled (cm) to reach the platform in the target quadrant was observed and recorded by a video tracking method (Ethovision, Noldus Information Technology, Version 3)."}, "[3]": {"assay": "Pharmacokinetic study in brain and plasma after oral dosing, LC-MS/MS", "assay_type": "in vivo, ICR mice", "method": "To determine the amount of PRO-Br in the brain, a pharmacokinetic study was performed employing 3-month-old female ICR mice (n = 6, 30 ± 2 g). PRO-Br (10 mg/kg b. wt) was injected orally. Brain tissues and blood samples (intracardial) were collected at various time-points (0, 15, 30, 45, 60, 75, 120, 240, 360, 480 min). Brain tissues and plasma samples were kept at −80°C until analysis. On the day of analysing the samples, the brain tissues were thawed on ice and half brain tissue was taken for analysis. To 200 mg of tissue, 4 times the volume of methanol (100%) was added, and homogenized until a clear solution was observed. The samples were centrifuged at 15,000 RPM for 10 min at 4°C. The supernatant was separated and analyzed using LC-MS/MS.\nQuantification of PRO-Br in mice brains was performed by Agilent 6410 LC-ESI-Triple-Quad/TOF. The mobile phase (A) consisted of water with 0.1% formic acid, and the mobile phase (B) consisted of acetonitrile with 0.1% formic acid (B). C18 column was used to elute the desired solutes, based on the protocol: 0–5 min, 23–50% B; 5–15 min, 50–60% B; 15–15.01 min, 60–95% B; 15.01–22 min, 95% B. The ions of PRO-Br were detected in positive ionization mode. Multiple reaction monitoring (MRM) mode was used to monitor the analytes of PRO-Br."}}, "note": "Where two headings read alike, the source gives them in different places."}
{"smiles": "CN1CCc2cc3c(cc2C(=O)Cc2c(Br)cc4c(c2C1)OCO4)OCO3", "note": "[PRO-Br, bromo-protopine]", "values": [{"measurement": "dendritic spine structures (thin, stubby and mushroom-like) in the hippocampus", "setting": "3xTg-AD mice [1]", "result": "significantly enhanced the dendritic spine structures"}, {"measurement": "latency of falling (rotarod)", "setting": "P301S mice", "result": "latency of falling was significantly enhanced"}, {"measurement": "learning and memory impairment (Morris water maze)", "setting": "3xTg-AD mice [2]", "result": "significantly reversed the learning and memory impairment"}, {"measurement": "time retained in the brain", "setting": "[3]; 10 mg/kg oral, female ICR mice, brain", "result": 4.2, "unit": "h"}, {"measurement": "brain penetrating efficacy", "setting": "[3]; compared to PRO", "result": "superior compared to its parent compound"}, {"measurement": "Kp", "setting": "[3]; mouse, brain, 10 mg/kg oral, female ICR mice, read-out: brain/plasma ratio", "result": 8.08}, {"measurement": "Cmax", "setting": "[3]; mouse, 10 mg/kg oral, female ICR mice, brain, read-out: maximum concentration (Cmax) in the brain", "result": 425, "unit": "ng/g"}, {"measurement": "Tmax", "setting": "[3]; mouse, 10 mg/kg oral, female ICR mice, brain, read-out: maximum time (Tmax) in the brain (converted)", "result": 30, "unit": "min"}, {"measurement": "Cmax", "setting": "[3]; mouse, 10 mg/kg oral, female ICR mice, plasma, read-out: Cmax in the plasma", "result": 91.9, "unit": "ng/mL"}, {"measurement": "Tmax", "setting": "[3]; mouse, 10 mg/kg oral, female ICR mice, plasma, read-out: Tmax in the plasma (converted)", "result": 15, "unit": "min"}]}
